US20070265196A1, “Method of Modulating Pro-Inflammatory and Inflammatory Activity Mediated by C-Reactive Protein” (MEDVET SCIENCE PTY., LTD., priority 2004, published 2007)
“Also recorded” adds a separate entry of the source.

Assays:
[1] = test system: C-reactive protein-induced expression of E-selectin, VCAM-1 and ICAM-1; experiment: Inhibition of C-reactive protein-induced cell-surface adhesion molecule expression in HUVEC (flow cytometry); assay type: cell-based, human; conditions: for effect of antioxidant on PLPC-dependent inhibition of C-reactive protein-induced E-selectin expression: HUVEC preincubated 16 hrs with 35 μM PLPC in presence of the antioxidant; for effect on C-reactive protein-induced expression of adhesion molecules (E-selectin, ICAM-1, VCAM-1): 16 hrs preincubation in serum-free medium, then C-reactive protein 10 μg/ml for 5 hrs
Description: (§1) Human umbilical vein endothelial cells (HUVEC) and bovine aortic endothelial cells (BAEC) were isolated and cultured as described previously (Wall et al (1978)). Cells were used at passages 2 to 3 for HUVEC and passages 3-10 for BAEC. For detection of adhesion molecules, HUVEC were incubated overnight in Opti-MEM serum free medium (Gibco, Invitrogen Corporation) in the presence or absence of HDL and then treated with recombinant human C-reactive protein (Calbiochem) for 5 hrs unless indicated otherwise. After the treatment, cells were washed with medium M199 and incubated with primary monoclonal antibodies against E-selectin, VCAM-1, ICAM-1 or isotype-matched nonrelevant control antibodies for 30 min as described previously (Gamble et al (1993)). Cells were then incubated with fluorescein isothiocyanate-conjugated secondary antibody for 30 min. The cells were then harvested by trypsinization and fixed in 2.5% formaldehyde (antibody binding prior to trypsinizing has been reported to prevent the partial hydrolyzation of the surface adhesion molecules (Grabner et al (2000))). The expression of cell-surface adhesion molecules was measured as fluorescence intensity by use of a Coulter Epics Profile XL flow cytometer. Unless stated otherwise, the results represent mean fluorescence of the positive population±SEM from one experiment and are representative at least three independent experiments. Differences between means were evaluated by Student's t-tests. ANOVA was used to identify statistical significance of multiple comparisons.
As described previously (Ashby et al (1998)) the lipoproteins were isolated from normal healthy adult donors by sequential ultracentrifugation in their appropriate density range: total HDL 1.07<d<1.21 and LDL 1.019<d<1.055 g/ml. The resulting preparations of lipoproteins were dialyzed against endotoxin-free PBS (pH 7.4) prior to use. Discoidal reconstituted HDL containing apoA-I and PLPC, were prepared by the cholate dialysis method described by Matz (1982). Small unilamellar vesicles (SUVs) containing either PLPC or 1-palmitoyl-2-oleoyl-sn-glycero-3-phosphocholine (POPC), in butylated hydroxytoluene (BHT) (molar ratio of PC to BHT, 10:1), were prepared in PBS precisely as described by Jonas (1986). Oxidation of SUV was produced by incubation with 5 μM CuSO4 in the absence of BHT for 48 hours at 37° C.

[2] = test system: HUVEC expression of E-selectin, VCAM-1 and ICAM-1; experiment: Induction of adhesion molecule expression in HUVEC by the substance itself (flow cytometry); assay type: cell-based, human; conditions: for effect of heating at 65° C. for 1 hour on activity (E-selectin induction): heated 65° C., serum free medium
Description: as §1

[3] = test system: adherence of U937 cells to C-reactive protein-activated BAEC; experiment: Adherence of U937 cells to C-reactive protein-treated BAEC; assay type: cell-based, bovine; conditions: BAEC incubated with C-reactive protein for 24 hours
Description: U937 cells (CRL 1593.2; ATCC) were colorimetrically labelled with 0.2 mg/ml 3-(4,5-dimethylthiazol-2-yl)-2,5-diphenyltetrazolium bromide (MTT; Promega) in normal culture medium for 30 min at 37° C. The cells were collected by low-speed centrifugation and resuspended at a density of 2×10^5 cells/ml in medium without FCS. BAECs were seeded into 24-well plates and treated as desired in triplicate. After the treatment, BAECs were washed twice with RPMI-1640 medium. The MTT-labelled U937 cell suspension (200 μl/well) was then added into the BAEC cultures and incubated for 30 min at 37° C. Non-adherent cells were removed by rinsing the plates three times with PBS, and the number of adherent cells was counted under microscopy at least 4 fields per well.

For `C[N+](C)(C)CCOP(=O)(O)O` [phosphorylcholine], the “effect on the C-reactive protein's activity” value ([1]; up to 100 μM added to the medium) was “had no effect”.
For `Cc1c(C)c2c(c(C)c1O)CC[C@@](C)(CCC[C@H](C)CCC[C@H](C)CCCC(C)C)O2` [α-tocopherol], the “effect of antioxidant on PLPC-dependent inhibition of C-reactive protein-induced E-selectin expression” value [1] was “reversed in a dose-dependent manner; also recorded: completely abolish” and the “effect of the substance alone on adhesion molecule expression” value ([2]; HUVEC) was “had no effect”.
For “lipid-free apoA-I: lipid-free apolipoprotein A-I, the protein component of rHDL”, the “effect on C-reactive protein-induced expression of adhesion molecules (E-selectin, ICAM-1, VCAM-1)” value ([1]; HUVEC) was “had no effect”.
With “C-reactive protein: recombinant human C-reactive protein (Calbiochem), proinflammatory stimulus” the “increase in adhesion of U937 cells to BAEC” value [3] was “more than 6 fold”, the “concentration at which dose-dependent activity reaches a maximum” value ([2]; E-selectin expression, HUVEC stimulated 5 hrs) was 10 to 20 µg/mL and the “cell surface expression of E-selectin VCAM-1 and ICAM-1” value ([2]; HUVEC treated with C-reactive protein (10 μg/ml, 5 hrs)) was “significant increase”. The “inflammatory effect in fresh serum-free medium” value ([2]; HUVEC, fresh (unconditioned) serum-free medium) was “no inflammatory effect” and the “effect of heating at 65° C. for 1 hour on activity (E-selectin induction)” value ([2]; HUVEC) was “completely eliminated”.
For `CCCCCCCCCCC[C@@H](C[C@@H]1OC(=O)[C@H]1CCCCCC)OC(=O)[C@H](CC(C)C)NC=O` [tetrahydrolipstatin], the “effect of lipase inhibitor treatment of cells on the anti-inflammatory activity of PLPC” value ([1]; HUVEC) was “not affected”.
With `CCCCC/C=C\C/C=C\CCCCCCCC(=O)OC(COC(=O)CCCCCCCCCCCCCCC)COP(=O)([O-])OCC[N+](C)(C)C` (stereo not drawn) [PLPC] the “C-reactive protein-induced E-selectin expression, substance added simultaneously with C-reactive protein” value ([1]; HUVEC, 35 μM, C-reactive protein 10 μg/ml 5 hrs, no pre-incubation) was “not”, the “inhibitory effect on C-reactive protein-induced adhesion molecule expression after 1-hour pre-incubation” value ([1]; HUVEC, 1-hour pre-incubation) was “no inhibitory effect” and the “inhibitory effect on C-reactive protein-induced adhesion molecule expression when added simultaneously with C-reactive protein” value ([1]; HUVEC, no pre-incubation) was “no inhibitory effect”. The “persistence of inhibitory effect when removed from the medium after 16-hour pre-incubation before C-reactive protein activation” value ([1]; HUVEC, washout) was “did not persist” and the “effect of the substance alone on adhesion molecule expression” value ([2]; HUVEC) was “had no effect”.
In the case of `CC(Cc1ccc(O)c(O)c1)C(C)Cc1ccc(O)c(O)c1` (stereo not drawn) [nordihydroguaiaretic acid], the “effect of antioxidant on PLPC-dependent inhibition of C-reactive protein-induced E-selectin expression” value [1] is reported as “reversed in a dose-dependent manner” and the “effect of antioxidant on PLPC-dependent inhibition of C-reactive protein-induced E-selectin expression” value ([1]; listed as NDGA) is reported as “completely abolish”.
With `CCCCCCCC/C=C\CCCCCCCC(=O)O[C@H](COC(=O)CCCCCCCCCCCCCCC)COP(=O)([O-])OCC[N+](C)(C)C` [POPC SUVs, 1-palmitoyl-2-oleoyl-sn-glycero-3-phosphocholine] the “effect on C-reactive protein-induced expression of adhesion molecules (E-selectin, ICAM-1, VCAM-1)” value ([1]; HUVEC) was “no inhibitory effect” and the “effect of CuSO4-exposed phospholipid on C-reactive protein-induced adhesion molecule expression” value ([1]; HUVEC, control exposed to CuSO4) was “did not affect”.
For Lipopolysaccharide [LPS], the “induction of adhesion molecule expression” value ([2]; HUVEC, concentrations of up to 1 ng/ml) was “insufficient to induce” and the “effect of heating at 65° C. for 1 hour on activity (E-selectin induction)” value ([2]; HUVEC) was “did not alter”.
